Experiment: xn = mol fraction of the nth substance listed
Conditions: 100 kPa, Liquid; for speed of sound: Sing-around technique in a fixed-path interferometer; for mass density: Vibrating tube method

C1CCOCC1 [tetrahydropyran] + C1CCCCC1
Conditions	mass density, 298.15 K [kg/m3]	mass density, 303.15 K [kg/m3]	mass density, 308.15 K [kg/m3]	speed of sound, 298.15 K [m/s]	speed of sound, 303.15 K [m/s]	speed of sound, 308.15 K [m/s]
x1 = 0.0987	782.47	777.69	772.88	1251.6	1226.7	1202.3
x1 = 0.1432	786.46	781.65	776.83	1250.7	1225.6	1201
x1 = 0.1876	790.51	785.69	780.84	1249.8	1224.6	1199.8
x1 = 0.2378	795.2	790.36	785.49	1249	1223.6	1198.7
x1 = 0.2791	799.14	794.28	789.39	1248.5	1223	1197.8
x1 = 0.3165	802.76	797.88	792.98	1248.1	1222.6	1197.3
x1 = 0.3782	808.86	803.96	799.03	1247.9	1222.4	1197
x1 = 0.4237	813.45	808.53	803.59	1248	1222.5	1197.1
x1 = 0.4521	816.36	811.43	806.48	1248.3	1222.7	1197.4
x1 = 0.4982	821.15	816.2	811.24	1248.8	1223.3	1198.1
x1 = 0.5318	824.7	819.74	814.76	1249.5	1224	1198.9
x1 = 0.5643	828.18	823.2	818.21	1250.2	1224.9	1199.9
x1 = 0.5918	831.15	826.17	821.16	1251	1225.7	1200.8
x1 = 0.6236	834.62	829.63	824.61	1252	1226.8	1202.1
x1 = 0.6982	842.94	837.92	832.88	1254.8	1230	1205.6
x1 = 0.7341	847.03	841.99	836.93	1256.4	1231.7	1207.7
x1 = 0.7949	854.07	849.02	843.94	1259.3	1235	1211.4
x1 = 0.8632	862.2	857.11	852	1262.9	1238.9	1215.8

Source: the NIST ThermoML archive (doi:10.1016/j.jct.2014.06.030)
